# Literature values in US10806143B2, “Herbicidal composition in granular form” (priority 2009, dated 2020).
# Settings: at 20° C.
smiles,measurement,value
"CCOC(=O)C(Cl)Cc1cc(-n2nc(C)n(C(F)F)c2=O)c(F)cc1Cl (stereo not shown) [carfentrazone-ethyl, ethyl 2-chloro-3-[2-chloro-5-(4-difluoromethyl-3-methyl-5-oxo-4,5-dihydro-[1,2,4]triazol-1-yl)-4-fluorophenyl]propionate]",water solubility,22 milligrams per liter
